# Peptide text beside a SMILES is read from it. * marks the point of attachment. Propyl(2R-PamO,3-PamO) = CCCCCCCCCCCCCCCC(=O)OC[C@H](C*)OC(=O)CCCCCCCCCCCCCCC
# Key:
# NIH Swiss mice = assay: Protection from lethal total body gamma radiation, lipopeptides s.c. 30 minutes prior; assay type: in vivo; conditions: for survival post-treatment: <0.1 MTD
# Procedure: Lipopeptides are potent activators of NF-κB and, as such, may act as inhibitors of apoptotic death. To determine whether lipopeptides function as radioprotectants, various lipopeptides were initially tested to determine the maximal tolerable dose (MTD). Various lipopeptides were then tested to measure their protective effect in NIH Swiss mice to lethal hematopoietic or nd gastrointestinal syndromes after exposure to 10 Gy or 13-15 Gy of total body gamma radiation, respectively. Lipopeptides (0.3-10 μg/mouse) were administered subcutaneously 30 minutes prior to irradiation.
# The results of a representative experiment using R-PAM2C-SKKKK (SEQ ID NO: 8) (hereafter, this compound is called, CBLB601) at <0.1 MTD are shown in FIG. 3. As expected, control mice irradiated with 10 Gy died between 11 and 15 days post-treatment, while all animals that received CBLB601 lived beyond 35 days post-treatment. Similarly, control mice irradiated with 13 Gy died between 6 and 10 days post-treatment, while all but one animal that received CBLB601 lived beyond 35 days post-treatment. The radioprotective ability of CBLB601 was further analyzed by measuring the effect of radiation on spleen size.
# TLR2/TLR6 heterodimer = molecular target: T1, TLR2/TLR6 heterodimer (Homo sapiens, UniProt O60603+Q9Y2C9); assay: NF-κB-dependent reporter activity in 293 cells expressing the TLR2/TLR6 heterodimer; assay type: cell-based; set-up: NF-κB activation: scale not given here; conditions: in vitro activity, 293 cells expressing TLR2/TLR6
# T1 construct: expressed in transfected cells; host or cells: 293 cells
# T1 sequence (O60603 21-784): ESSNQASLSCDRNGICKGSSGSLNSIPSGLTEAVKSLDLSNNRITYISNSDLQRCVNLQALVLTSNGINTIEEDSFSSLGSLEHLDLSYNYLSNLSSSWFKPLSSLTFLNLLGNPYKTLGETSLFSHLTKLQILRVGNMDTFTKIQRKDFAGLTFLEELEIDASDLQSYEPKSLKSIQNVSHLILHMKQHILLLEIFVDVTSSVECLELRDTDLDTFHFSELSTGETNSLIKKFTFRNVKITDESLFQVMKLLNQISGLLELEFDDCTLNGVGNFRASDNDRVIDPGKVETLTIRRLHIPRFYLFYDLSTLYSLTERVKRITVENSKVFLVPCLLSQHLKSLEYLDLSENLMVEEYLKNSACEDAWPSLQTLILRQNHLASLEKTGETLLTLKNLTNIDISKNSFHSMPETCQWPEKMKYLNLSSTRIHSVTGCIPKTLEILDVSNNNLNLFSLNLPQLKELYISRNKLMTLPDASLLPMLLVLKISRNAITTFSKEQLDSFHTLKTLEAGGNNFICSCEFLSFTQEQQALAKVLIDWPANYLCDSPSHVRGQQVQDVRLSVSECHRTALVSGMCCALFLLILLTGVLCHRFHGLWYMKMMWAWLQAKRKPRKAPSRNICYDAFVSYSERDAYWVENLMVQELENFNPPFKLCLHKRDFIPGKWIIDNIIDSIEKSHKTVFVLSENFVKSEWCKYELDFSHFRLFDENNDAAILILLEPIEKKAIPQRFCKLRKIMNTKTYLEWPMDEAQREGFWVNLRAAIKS
# T1 sequence (Q9Y2C9 32-796): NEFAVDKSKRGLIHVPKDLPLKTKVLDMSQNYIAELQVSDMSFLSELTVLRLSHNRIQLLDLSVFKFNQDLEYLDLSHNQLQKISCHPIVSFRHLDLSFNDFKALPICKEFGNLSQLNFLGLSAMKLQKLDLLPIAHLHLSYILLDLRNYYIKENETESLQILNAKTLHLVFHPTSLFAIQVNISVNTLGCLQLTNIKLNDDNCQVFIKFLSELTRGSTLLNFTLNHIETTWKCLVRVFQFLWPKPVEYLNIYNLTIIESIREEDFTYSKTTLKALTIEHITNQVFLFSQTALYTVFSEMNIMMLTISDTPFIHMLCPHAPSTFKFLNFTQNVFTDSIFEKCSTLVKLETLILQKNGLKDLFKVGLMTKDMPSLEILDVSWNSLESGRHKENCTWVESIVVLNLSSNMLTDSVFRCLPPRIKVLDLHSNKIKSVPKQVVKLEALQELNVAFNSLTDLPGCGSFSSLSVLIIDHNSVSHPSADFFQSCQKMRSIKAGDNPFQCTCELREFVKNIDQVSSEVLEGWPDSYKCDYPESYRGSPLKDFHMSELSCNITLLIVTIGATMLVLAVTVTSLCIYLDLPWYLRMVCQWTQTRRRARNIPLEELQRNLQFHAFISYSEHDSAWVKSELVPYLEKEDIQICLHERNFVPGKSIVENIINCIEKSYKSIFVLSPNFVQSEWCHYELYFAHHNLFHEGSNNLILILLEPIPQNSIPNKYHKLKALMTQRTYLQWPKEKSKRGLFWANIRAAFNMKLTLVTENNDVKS
# Procedure: NF-κB-dependent reporter activity was measured in 293 cells that expressed the TLR2/YLR6 heterodimer. […] None of the non-palmitoylated corresponding peptides activated the NF-κB reporter (FIG. 18B). The peptide component of CBLB617 has a (−4) charge, which should prevent it from interacting with negatively charged cell surface markers. […] Table 5 summarizes the in vitro activity and solubility of all the compounds.
# ICR mice [1] = assay: Radiation LD50/30 and dose modification factor (DMF30); assay type: in vivo
# Procedure: To determine DMF (dose modification factor), 3 μg of CBLB601/mouse was injected i.m. 24 hr prior to irradiation and control mice were injected with PBS. Both drug-injected and control groups received a single dose of TBI covering the dose range that leads to 10-90% mortality within the chosen time intervals (7 days for the gastrointestinal syndrome mortality, and 30 days for the hematopoietic syndrome mortality). The percent mortality-radiation dose graphs were built and LD50/7 and LD50/30 (LD50 at 7 days and 30 days, respectively) were calculated using probit or logit statistical analysis. DMF (also known as dose reduction factor, DRF) was calculated as a ratio of radiation LD50 for CBLB601-treated groups and radiation LD50 for vehicle-treated groups of mice for the chosen survival time point, 7 or 30 days. To calculate DMF30, which is the DMF at day 30 post-irradiation, the radiation LD50/30 values for mice treated with PBS or 3 μg of CBLB601 was determined. For this, PBS-injected groups were irradiated with doses of 6, 6.5, 7, and 7.7 Gy of TBI, and CBLB601-injected groups were irradiated with doses of 10, 10.5, 11, 11.5, and 12 Gy of TBI. […] However, inconsistency in the response to some radiation doses (7 Gy appeared non-toxic whereas 6.5 Gy caused 60% lethality at 30 days) in the control mice precluded an accurate calculation of the DMF30 for CBLB601. Nevertheless, it was expected that the LD50/30 for ICR mice was around 7 Gy [an average for the majority of mouse strains; Monobe et al., Radiother Oncology 73 Suppl 2: S12709, 2004)]. Thus, the value of DMF30 for CBLB601 was estimated roughly as ˜1.6.
# ICR mice [2] = assay: NOAEL determination, i.p. injection of increasing doses, two-week observation; assay type: in vivo
# Procedure: The dose of NOAEL (No Obvious Adverse Effects Level) was determined by injecting intraperitoneally (i.p) ICR mice with the increasing doses of CBLB601 (0.3, 1, 3, 10, 30, 60, 100 μg/mouse). Control mice were injected with PBS. […] During the first week they were weighed daily. […] Thus, NOAEL for CBLB601 was determined to be 30 μg/mouse.
# ICR mice [3] = assay: Immune status of mice rescued from TBI (spleen and thymus weight, histology, flagellin immunization); assay type: in vivo
# Procedure: To check the status of their immune systems, ICR mice were exposed to lethal (10 Gy) or non-lethal (6 Gy) doses of TBI 24 hr after they had been injected (i.m.) with 3 μg CBLB601/mouse or PBS. Groups of five mice from each condition were sacrificed very three days and their spleens and thymuses were removed and weighed. The weights of the spleens were normalized to the body weights of the corresponding animals and the results are presented in FIG. 15. PBS-treated mice that were exposed to 6 Gy of radiation took about 13-14 days to restore their spleens to normal weights, whereas CBLB601-treated mice exposed to 6 Gy of radiation had normal spleen weights by day 8. […] It took a longer period of time (˜30 days) to restore the thymuses to normal weights (not shown).
# The spleens and thymuses from control and CBLB601-injected mice were examined microscopically for morphological changes at 3, 10 and 30 days after irradiation. […] There was no evidence of recovery of the splenic white pulp depletion in either group at day 10. Regenerative lymphoid hyperplasia in the thymus was evident in both groups at day 10, with the regeneration slightly more advanced in the control that in the CBLB601-treated mice.
# To test the immune response of mice rescued from a lethal dose of gamma-irradiation (10 Gy of TBI) by CBLB601, several groups of such mice were subjected to immunization with a strong antigen, Salmonella flagellin. The mice were first immunized at 8, 18, or 20 weeks after irradiation, at which time they were 18, 25, and 33 weeks of age, respectively. Non-irradiated naïve mice at 29 weeks of age were used as a positive control for the immune response. The mice received a boost of flagellin one week after the first immunization, and another boost three weeks after the 2nd boost; anti-flagellin antibody titers were measured in mouse serum. To test the secondary immune response, the mice were bled again a month later to insure reduction of the antibody titers. This was followed by a 3rd boost of the antigen injection and measurement of anti-flagellin antibodies titers 10 days later. At the time of the 3rd boost, the irradiation mice were 38, 30, and 23 weeks old, and the control mice were 34 weeks old.
# [4] = 3 μg/mouse i.m. 24 hr prior to irradiation, ProBit analysis
compound,measurement,setting,value
"CCCCCCCCCCCCCCCC(=O)OC[C@H](CSC[C@H](N)C(=O)N[C@@H](CO)C(=O)N[C@@H](CCCCN)C(=O)N[C@@H](CCCCN)C(=O)N[C@@H](CCCCN)C(=O)N[C@@H](CCCCN)C(=O)O)OC(=O)CCCCCCCCCCCCCCC [CBLB601, R-PAM2C-SKKKK] (H-C(Propyl(2R-PamO,3-PamO))SKKKK-OH)",survival post-treatment,"NIH Swiss mice; 10 Gy, all animals",> 35 days
same,effect of radiation on spleen size,NIH Swiss mice; 13 Gy total body gamma irradiation (FIG. 4),significantly less reduction in the size of the spleen
same,survival post-treatment,"NIH Swiss mice; 13 Gy, all but one animal",> 35 days
same,protection of the thymus from radiation,NIH Swiss mice; data not shown,protected the thymus from radiation
same,NF-κB activation,TLR2/TLR6 heterodimer,100
same,"radiation LD50/30, average",ICR mice [1]; [4],~11.32 Gy
same,"radiation LD50/30, range",ICR mice [1]; [4],11.07-11.61 Gy
same,DMF30 (dose modification factor at day 30),"ICR mice [1]; 3 μg/mouse i.m. 24 hr prior, control LD50/30 taken as around 7 Gy from literature",~1.6
same,differences between treated and control mice,ICR mice [2]; 30 μg dose i.p.,no noticeable differences
same,morbidity,"ICR mice [2]; 60 μg dose i.p., around 3-4 days after treatment","signs of morbidity, such as slow motion and scruffy fur"
same,mortality,"ICR mice [2]; 100 μg/mouse i.p., 1-2 days post-treatment",Mortality was observed
same,body weight versus control mice,"ICR mice [2]; 0.3-100 μg/mouse i.p., weighed daily in first week",no differences in weight
same,NOAEL (No Obvious Adverse Effects Level),"ICR mice [2]; i.p., ICR mice",30 μg/mouse
same,time to restore the thymuses to normal weights,"ICR mice [3]; 3 μg/mouse i.m. 24 hr before TBI, not shown",~30 days
same,day by which spleen weights were normal,"ICR mice [3]; 6 Gy TBI, 3 μg/mouse i.m. 24 hr before",≤ 8 days
same,day by which spleen weights were completely restored,"ICR mice [3]; 10 Gy TBI, 3 μg/mouse i.m. 24 hr before",13 to 14 days
same,"spleen histology, extramedullary hematopoiesis","ICR mice [3]; 10 days post-irradiation, 10 Gy",mild to moderate multifocal extramedullary hematopoiesis (EMH)
same,humoral immune response against flagellin,"ICR mice [3]; mice rescued from 10 Gy TBI, immunized 8, 18 or 20 weeks after irradiation",robust humoral immune response against flagellin that was indistinguishable from that of the naïve control mice

# Reference: patent publication US8008260B2, “Methods of protecting against apoptosis using lipopeptides” (Cleveland Clinic Foundation, priority 2005, dated 2011)
